Holding throughout (assay): AK assay 384-well format, Prestwick library screening
For one test, the system named is E. cloacae. The format is cell-based, Enterobacter cloacae. The following applies: for fold induction at 50 µM: Enterobacter cloacae, 3 h.
For test [1], the system named is A. baumannii strain 98-37-09. The test is classed as cell-based, Acinetobacter baumannii. The following applies: for fold induction at 50 µM: Acinetobacter baumannii, 983709, 3 h.
In the next test the test system is P. aeruginosa. The test is classed as cell-based, Pseudomonas aeruginosa. The following applies: for fold induction at 50 µM: Pseudomonas aeruginosa, 3 h.
The test system of another test is K. pneumoniae. The format is cell-based, Klebsiella pneumoniae. The following applies: for fold induction at 50 µM: Klebsiella pneumoniae, 3 h.
The next test has as its system E. coli. The test is classed as cell-based, Escherichia coli. The following applies: 50 μM final drug concentration; for fold induction at 50 µM: Escherichia coli, 3 h.
The subject of a further test is E. faecium. The test is classed as cell-based, Enterococcus faecium. To be noted: for fold induction at 50 µM: Enterococcus faecium, 3 h.
Test [2] relates to S. aureus strain USA300-0114. The test is classed as cell-based, Staphylococcus aureus. The following applies: for fold induction at 50 µM: Staphylococcus aureus, USA300, 3 h.
[3] abbreviates: planktonic E. coli, positive cutoff 3-fold increase, read-out: AK-based Prestwick library screening result, E. coli (fold increase in extracellular AK activity).
The mark [4] stands for this setting: planktonic E. cloacae, 50 μM final drug concentration, 384-well, cutoff for positive-scoring molecules 3-fold increase, read-out: AK-based Prestwick Library Screening Results: E. cloacae (increase in extracellular AK activity).
Where [5] appears, read: planktonic A. baumannii, 50 μM final drug concentration, 384-well, cutoff for positive-scoring molecules 3-fold increase, read-out: AK-based Prestwick Library Screening Results: A. baumannii (increase in extracellular AK activity).
Where [6] appears, read: planktonic P. aeruginosa, 50 μM final drug concentration, 384-well, cutoff for positive-scoring molecules 3-fold increase, read-out: AK-based Prestwick Library Screening Results: P. aeruginosa (increase in extracellular AK activity).
Where [7] appears, read: planktonic K. pneumoniae, 50 μM final drug concentration, 384-well, cutoff for positive-scoring molecules 3-fold increase, read-out: AK-based Prestwick Library Screening Results: K. pneumoniae (increase in extracellular AK activity).
The mark [8] stands for this setting: planktonic E. coli, 384-well, cutoff for positive-scoring molecules 3-fold increase, read-out: AK-based Prestwick Library Screening Results: E. coli (increase in extracellular AK activity).
The mark [9] stands for this setting: planktonic E. faecium, 50 μM final drug concentration, 384-well, cutoff for positive-scoring molecules 3-fold increase, read-out: AK-based Prestwick Library Screening Results: E. faecium (increase in extracellular AK activity).
The mark [10] stands for this setting: planktonic S. aureus, 50 μM final drug concentration, 384-well, cutoff for positive-scoring molecules 3-fold increase, read-out: AK-based Prestwick Library Screening Results: S. aureus (increase in extracellular AK activity).
Where [11] appears, read: 50 μM final drug concentration, […].

Structures can show the parent of a compound that is named as a salt. Where two headings read alike, the source gives them in different places.

For the compound `CC(=O)c1cc2ccccc2oc1=O` [Compound 3-Acetylcoumarin, 3-Acetylcoumarin], the fold induction at 50 µM in the test on E. cloacae (50 μM final drug concentration, planktonic, cutoff for positive-scoring molecules 3-fold increase, read-out: AK-based Prestwick Library Screening Results, E. cloacae (fold increase in extracellular AK activity)) amounted to 1.1; in test [1] (50 μM final drug concentration, planktonic, cutoff for positive-scoring molecules 3-fold increase, read-out: AK-based Prestwick Library Screening Results, A. baumannii (fold increase in extracellular AK activity)) it was 0.8; in the test on P. aeruginosa (50 μM final drug concentration, planktonic, cutoff for positive-scoring molecules 3-fold increase, read-out: AK-based Prestwick Library Screening Results, P. aeruginosa (fold increase in extracellular AK activity)) it was 0.8; with K. pneumoniae (50 μM final drug concentration, planktonic, cutoff for positive-scoring molecules 3-fold increase, read-out: AK-based Prestwick Library Screening Results, K. pneumoniae (fold increase in extracellular AK activity)), 0.6; in the test on E. coli (planktonic, cutoff for positive-scoring molecules 3-fold increase, read-out: AK-based Prestwick Library Screening Results, E. coli (fold increase in extracellular AK activity)), 0.7; in the test on E. faecium (50 μM final drug concentration, planktonic, cutoff for positive-scoring molecules 3-fold increase, read-out: AK-based Prestwick Library Screening Results, E. faecium (fold increase in extracellular AK activity)), 0.9. Also, the fold induction at 50 µM in test [2] (50 μM final drug concentration, planktonic, cutoff for positive-scoring molecules 3-fold increase, read-out: AK-based Prestwick Library Screening Results, S. aureus (fold increase in extracellular AK activity)) was found to be 0.6.

As to `CCOC1O[C@H]([C@@H](COCc2ccccc2)OCc2ccccc2)[C@H](OCc2ccccc2)[C@H]1O` (some centres unmarked) [Tribenoside], the fold induction at 50 µM in the test with E. cloacae (planktonic E. cloacae, 50 μM final drug concentration, positive cutoff 3-fold increase, read-out: AK-based Prestwick library screening result, E. cloacae (fold increase in extracellular AK activity)) amounted to 1.5; in test [1] (planktonic A. baumannii, 50 μM final drug concentration, positive cutoff 3-fold increase, read-out: AK-based Prestwick library screening result, A. baumannii (fold increase in extracellular AK activity)) it was 1.7; with P. aeruginosa (planktonic P. aeruginosa, 50 μM final drug concentration, positive cutoff 3-fold increase, read-out: AK-based Prestwick library screening result, P. aeruginosa (fold increase in extracellular AK activity)), 1.1; in the test with K. pneumoniae (planktonic K. pneumoniae, 50 μM final drug concentration, positive cutoff 3-fold increase, read-out: AK-based Prestwick library screening result, K. pneumoniae (fold increase in extracellular AK activity)), 0.9; in the test on E. coli (setting [3]), 0.9; in the test on E. faecium (planktonic E. faecium, 50 μM final drug concentration, positive cutoff 3-fold increase, read-out: AK-based Prestwick library screening result, E. faecium (fold increase in extracellular AK activity)), 1.1. The fold induction at 50 µM in test [2] (planktonic S. aureus, 50 μM final drug concentration, positive cutoff 3-fold increase, read-out: AK-based Prestwick library screening result, S. aureus (fold increase in extracellular AK activity)) stood at 0.6.

In the case of `O=C1O[C@H]([C@@H](O)CO)C(O)=C1O` [Ascorbic acid], the fold induction at 50 µM with E. cloacae (setting [4]) is 0.4; in test [1] (setting [5]) it was 0.4; with P. aeruginosa (setting [6]) it was 0.3; in the test with K. pneumoniae (setting [7]), 0.5; with E. coli (setting [8]) it was 0.5; in the test with E. faecium (setting [9]), 0.9. The fold induction at 50 µM in test [2] (setting [10]) turned out to be 0.4.

Turning to `CCN1CCCC(OC(=O)C(c2ccccc2)c2ccccc2)C1` (centres unmarked) [Piperidolate hydrochloride], the fold induction at 50 µM in the test on E. cloacae (read-out: AK-based Prestwick library screening result, E. cloacae (fold increase in extracellular AK activity)) amounted to 0.7; in test [1] (read-out: AK-based Prestwick library screening result, A. baumannii (fold increase in extracellular AK activity)), 0.6; with P. aeruginosa (read-out: AK-based Prestwick library screening result, P. aeruginosa (fold increase in extracellular AK activity)), 0.7; in the test with K. pneumoniae (read-out: AK-based Prestwick library screening result, K. pneumoniae (fold increase in extracellular AK activity)), 0.6; in the test with E. coli (setting [3]), 0.7; in the test on E. faecium (read-out: AK-based Prestwick library screening result, E. faecium (fold increase in extracellular AK activity)), 1. The fold induction at 50 µM in test [2] (read-out: AK-based Prestwick library screening result, S. aureus (fold increase in extracellular AK activity)) turned out to be 0.6.

Regarding `CC(C)NCC(O)COc1cccc2ccccc12` (centres unmarked) [Propranolol hydrochloride], the fold induction at 50 µM in the test on E. cloacae (50 μM final drug concentration, cutoff for positive-scoring molecules 3-fold increase, read-out: AK-based Prestwick Library Screening Results, E. cloacae (fold increase in extracellular AK activity)) was determined as 1.4; in test [1] (50 μM final drug concentration, cutoff for positive-scoring molecules 3-fold increase, read-out: AK-based Prestwick Library Screening Results, A. baumannii (fold increase in extracellular AK activity)), 1.2; in the test with P. aeruginosa (50 μM final drug concentration, cutoff for positive-scoring molecules 3-fold increase, read-out: AK-based Prestwick Library Screening Results, P. aeruginosa (fold increase in extracellular AK activity)), 1.2; in the test on K. pneumoniae (50 μM final drug concentration, cutoff for positive-scoring molecules 3-fold increase, read-out: AK-based Prestwick Library Screening Results, K. pneumoniae (fold increase in extracellular AK activity)), 1.1; with E. coli (cutoff for positive-scoring molecules 3-fold increase, read-out: AK-based Prestwick Library Screening Results, E. coli (fold increase in extracellular AK activity)), 1.2; in the test on E. faecium (50 μM final drug concentration, cutoff for positive-scoring molecules 3-fold increase, read-out: AK-based Prestwick Library Screening Results, E. faecium (fold increase in extracellular AK activity)) it was 1.1. In addition, the fold induction at 50 µM in test [2] (50 μM final drug concentration, cutoff for positive-scoring molecules 3-fold increase, read-out: AK-based Prestwick Library Screening Results, S. aureus (fold increase in extracellular AK activity)) worked out at 1.4.

As to `COc1cc(N)c(Cl)cc1C(=O)NC1CCN(CCCOc2ccc(F)cc2)CC1OC` (centres unmarked) [Cisapride], the fold induction at 50 µM in the test with E. cloacae (planktonic E. cloacae, 50 μM final drug concentration, cutoff for positive-scoring molecules 3-fold increase, read-out: AK-based Prestwick Library Screening Results, E. cloacae (increase in extracellular AK activity)) amounted to 0.9; in test [1] (planktonic A. baumannii, 50 μM final drug concentration, cutoff for positive-scoring molecules 3-fold increase, read-out: AK-based Prestwick Library Screening Results, A. baumannii (increase in extracellular AK activity)), 1.1; with P. aeruginosa (planktonic P. aeruginosa, 50 μM final drug concentration, cutoff for positive-scoring molecules 3-fold increase, read-out: AK-based Prestwick Library Screening Results, P. aeruginosa (increase in extracellular AK activity)), 0.9; in the test on K. pneumoniae (planktonic K. pneumoniae, 50 μM final drug concentration, cutoff for positive-scoring molecules 3-fold increase, read-out: AK-based Prestwick Library Screening Results, K. pneumoniae (increase in extracellular AK activity)), 0.7; in the test on E. coli (planktonic E. coli, cutoff for positive-scoring molecules 3-fold increase, read-out: AK-based Prestwick Library Screening Results, E. coli (increase in extracellular AK activity)) it was 0.9; with E. faecium (planktonic E. faecium, 50 μM final drug concentration, cutoff for positive-scoring molecules 3-fold increase, read-out: AK-based Prestwick Library Screening Results, E. faecium (increase in extracellular AK activity)), 0.9. Further, the fold induction at 50 µM in test [2] (planktonic S. aureus, 50 μM final drug concentration, cutoff for positive-scoring molecules 3-fold increase, read-out: AK-based Prestwick Library Screening Results, S. aureus (increase in extracellular AK activity)) came to 0.6.

As to `Cl.O=c1[nH]oc2c1CCNC2` [THIP Hydrochloride], the “AK-based Prestwick Library Screening Results, E. cloacae (fold increase in extracellular AK activity)” value in the test on E. cloacae (setting [11]) stood at 0.8. For the same compound, the “AK-based Prestwick Library Screening Results, A. baumannii (fold increase in extracellular AK activity)” value in test [1] (setting [11]) is recorded as 0.6. In the test with P. aeruginosa (setting [11]), the “AK-based Prestwick Library Screening Results, P. aeruginosa (fold increase in extracellular AK activity)” value turned out to be 0.6. For the same compound, the “AK-based Prestwick Library Screening Results, K. pneumoniae (fold increase in extracellular AK activity)” value with K. pneumoniae (setting [11]) came out at 0.6. Besides, the “AK-based Prestwick Library Screening Results, E. coli (fold increase in extracellular AK activity)” value in the test on E. coli ([…]) was found to be 0.6. Besides, the “AK-based Prestwick Library Screening Results, E. faecium (fold increase in extracellular AK activity)” value with E. faecium (setting [11]) was 1.0. In test [2] (setting [11]), the “AK-based Prestwick Library Screening Results, S. aureus (fold increase in extracellular AK activity)” value worked out at 0.6.

Consider `CC(=O)OCC(=O)[C@@]1(O)[C@H](C)C[C@H]2[C@@H]3CCC4=CC(=O)C=C[C@]4(C)[C@@]3(F)[C@@H](O)C[C@@]21C` [Dexamethasone acetate], for which the fold induction at 50 µM was determined as 1.2 in the test on E. cloacae (setting [4]); 1.1 in test [1] (setting [5]); 1 in the test on P. aeruginosa (setting [6]); 1.1 in the test with K. pneumoniae (setting [7]); 1.4 in the test on E. coli (setting [8]); 1.2 with E. faecium (setting [9]). The fold induction at 50 µM in test [2] (setting [10]) stood at 1.2.

(Values after US10004701B2, “Methods and compositions for treating infection” (UNIVERSITY OF ROCHESTER, priority 2012, dated 2018).)
